# Peptide text beside a SMILES is read from it. * marks the point of attachment. Cbz = O=C(OCc1ccccc1)*
# Key:
# [1] = test system: BES1 protein in 35S:BES1:GFP plants; assay: Western blot analysis of BES1 phosphorylation state; assay type: in vivo, Arabidopsis thaliana
# Method: (§1) FIG. 8: A: Western Blot analysis of the BES1 protein in 35S:BES1:GFP plants treated with BL and abrasin (indicated as I5 throughout the figure) (A); MG132 with BL or abrasin (B); a time course with abrasin (C) and a concentration gradient with abrasin (D). B: Abrasin and BL induce similar transcriptional regulation of the BR pathway.
# For protein extraction, six-day-old seedlings were grown under standard conditions as described earlier on solid medium. Plants were next soaked in liquid MS-medium supplemented with the indicated compounds (concentrations and time periods as indicated in figures). Subsequently, plants were frozen in liquid nitrogen, ground and homogenized in ice-cold homogenization buffer (25 mM Tris-HCl (pH 8), 5 mM EDTA, 1 mM β-Mercapto-ethanol, 15 mM MgCl—2, 85 mM NaCl, 0.1% Tween 20, 1 protease inhibitor tablet/50 ml, Complete (Roche diagnostics, Belgium)). The homogenate was centrifuged twice (5 min, 14.000 rpm, 4° C.) in an Eppendorf Centrifuge 5417. Loading buffer was added, the samples were heated for 10 min at 95° C. and centrifuged. The samples were separated on a 12% acrylamide gel or a 4-20% gradient pre-cast gel (Bio-Rad) and blotted on nitrocellulose membranes (Hybond-C super, GE-Biosciences, UK) in 190 mM glycine and 25 mM Tris-Hcl using a mini-blotting system (Bio-Rad, USA) for 1 h. Membranes were blocked overnight at 4° C. in phosphate buffer with 0.1% Tween 20 and 5% skim milk (BD Difco, USA). For immunodetection, anti-BES1 antibodies at 1:2000 dilution and anti-GFP antibodies at 1:1000 dilution were used as primary antibody. As secondary antibody, anti-rat and anti-rabbit were used at 1:10.000 dilution. The proteins were detected by chemiluminescence (Perkin-Elmer, USA).
# [2] = test system: Arabidopsis thaliana seedlings; assay: Lateral root formation / root elongation of seedlings on agar plates; assay type: in vivo; conditions: structural variants of abrasin
# Method: FIG. 3: (A) Phenotypic characterization. WT plants were grown under standard conditions on agar plates. […] Left panel: control plant. Middle panel: abrasin treated plant. Right panel: BL treated plant. (B) Dose response measurements of abrasin using lateral root formation as an indicator of brassinosteroid like activity. Error bars represent standard error of the mean. […] Osram) at 22° C. Three days after germination compounds were added to the 96-well plates at a final concentration of 50 μM. Plants were screened six days after germination for brassinosteroid-related phenotypes. For further phenotypical analysis, all plants were grown on vertically oriented square plates (Greiner Labortechnik, Austria) with solid medium derived from standard Murashige and Skoog medium under the same conditions. For the hypocotyl-elongation assay, plants were grown in the dark at 22° C. under the same conditions.
# [3] = test system: BR-biosynthetic, BR signaling and BR-induced genes; assay: Real time PCR of BR pathway genes; assay type: in vivo, Arabidopsis thaliana; conditions: 30 μM, 2 hours
# Method: FIG. 7: Q-PCR analysis of genes involved in BR biosynthesis. WT Arabidopsis plants were treated with abrasin (indicated as I5) for 2 hours at a concentration of 30 μM and/or with CHX at a concentration of 30 μM and RNA was extracted from whole plants.
# as §1
# RNA was extracted with the RNeasy kit. Poly(dT) cDNA was prepared from […] of total RNA with Superscript III reverse transcriptase (Invitrogen) and quantified on an LightCycler 480 apparatus (Roche) with the SYBR Green I Master kit (Roche) according to the manufacturer's instructions. Target quantifications were performed with specific primer pairs designed with the Beacon Designer 4.0 (Premier Biosoft International). All PCRs were performed in triplicate.
# The primers used to quantify gene expression levels were for BAS 1: 5′-[…]-3′ and 5′-[…]-3′; BR6Ox1: 5′-TGGCCAATCTTTGGCGAA-3′ and 5′-[…]-3′; BR6Ox2: 5′-[…]-3′ and 5′-[…]-3′; BRI1: 5′-[…]-3′ and 5′-[…]-3′; CPD: 5′-[…]-3′ and 5′-[…]-3′; DWF4: 5′-[…]-3′ and 5′-[…]-3′ ROT3: 5′-ATTGGCGCGTTCCTCAGAT-3′ and 5′-[…]-3′; BES1: 5′-[…]-3′ and 5′-[…]-3′; BIN2: 5′-[…]-3′ and 5′-[…]-3′; BSU 1: 5′-[…]-3′ and 5′-[…]-3′; BZR1: 5′-[…]-3′ and 5′-[…]-3′; CDKA1; 1: 5′-[…]-3′ and 5′-[…]-3′; EEF1α: 5′-[…]-3′ and 5′-[…]-3′; BKI1: 5′-GCTCCGGCGTCGATGA-3′ and 5′-[…]-3′.
compound,measurement,setting,value
"CC(C)C[C@@H](C=O)NC(=O)[C@H](CC(C)C)NC(=O)[C@H](CC(C)C)NC(=O)OCc1ccccc1 [MG132, Z-Leu-Leu-Leu-CHO, reference compound] (Cbz-Leu-Leu-Leu-aldehyde)",total amount of BES1 protein,[1]; MG132 treatment,an increase in the total amount of BES1
same,BES1 phosphorylation state,[1]; addition of BL or MG132,no shift in the ratio between the phosphorylated and the dephosphorylated form is observed
"O=C(O)CCC(=O)Nc1ccc(F)cn1 [fluoro derivative, 4-[(5-fluoro-2-pyridinyl)amino]-4-oxobutanoic acid]",effect on lateral root formation as indication of brassinosteroid like activity,[2],highest activity
"C[C@@H]1C[C@@H]([C@H](O)CC2CC(=O)NC(=O)C2)C(=O)[C@@H](C)C1 [CHX, cycloheximide, reference compound]",expression of genes downstream of the BRI1 receptor,[3],able to induce some of these genes
